# What was measured:
# TNFR1 = target: T1, TNFR1 (Mus musculus, UniProt P25118); assay: Quantum dot-based single particle tracking, TNFR1; format: cell-based
# T1 construct: To track individual TNFR1 on the cell membrane; endogenous in cells
# T1 sequence (P25118 30-454): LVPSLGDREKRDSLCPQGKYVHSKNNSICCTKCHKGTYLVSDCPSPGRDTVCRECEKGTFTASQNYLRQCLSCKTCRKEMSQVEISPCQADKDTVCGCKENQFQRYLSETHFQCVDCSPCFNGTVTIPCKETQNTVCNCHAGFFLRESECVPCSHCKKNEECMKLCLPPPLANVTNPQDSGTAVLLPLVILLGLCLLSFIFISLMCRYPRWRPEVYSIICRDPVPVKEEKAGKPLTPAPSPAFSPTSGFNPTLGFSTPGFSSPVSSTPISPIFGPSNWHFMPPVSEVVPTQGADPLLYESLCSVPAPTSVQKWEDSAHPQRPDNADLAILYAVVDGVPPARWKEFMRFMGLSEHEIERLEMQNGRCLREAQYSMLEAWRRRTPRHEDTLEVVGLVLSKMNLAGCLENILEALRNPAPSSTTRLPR
# Experimental: To track individual TNFR1 on the cell membrane, anti-TNFR1 IgG (was first papain digested to yield a Fab fragment. The Fab was then conjugated with biotin through the unique —SH at its C terminal. To prepare anti TNFR1 Fab QD conjugates, a solution of 0.7 nM anti TNFR1—Fab-biotin in 1 ml of DMEM was added drop-wise to 1 ml of 2 nM QD 605-streptavidin conjugate. Cell monolayers (50% confluent) previously serum starved for 1 hr were treated with 3OC12 HSL or left untreated and incubated with […] of the final anti TNFR1-Fab-QD solution at 25° C. for 2 min. The cells were then washed twice with PBS at 25° C., placed in serum-free medium, and loaded for imaging. For single-FcRγIIA tracking, Fc fragment was obtained by papain digestion of an anti-BSA IgG (Sigma Aldrich). Fc-QD conjugate was produced as described before. Cos-1 cells were transiently transfected with Fcγ RIIA plasmid, 24 hrs later, cells were stimulated with 3OC12 HSL or left untreated and incubated with […] of the final Fc-QD solution at 25° C. for 2 min. Quantum dot-labeled cells were imaged in TIRF mode. The fluorescence was excited at 488 nm and gated by a band-pass filter (575-640, Carl Zeiss). The excitation power was about 2 mW measured after the objective. Movies of 400 frames were acquired for each sample at a full-frame rate of 17 Hz. Individual trajectories were constructed by Utrack written in Matlab. Diffusion coefficient and plot area were calculated by customized programs written with Matlab. For motion pattern determination by MSD-t analysis 5: linear, simple Brownian diffusion; open-up parabolic, directed diffusion; open-down parabolic, restricted diffusion; and near zero, stationary.
# [1] = test system: 3OC12 HSL-induced cytotoxicity; assay: Caspase inhibitors against 3OC12 HSL cytotoxicity; format: cell-based; details: in comparison with 3OC12 HSL treatment alone
# Experimental: (§1) Cell apoptosis was detected with Annexin V/PI apoptosis detection Kit. Briefly, cells were stimulated with HSLs or left untreated. 6 hrs later, cells were collected and stained with Annexin VFITC and PI for 15 min at RT, then the apoptotic effect was measured by flow cytometry. OT-I or OT-II splenocytes were pulsed with specific peptides or PMA and ionomycin mixture with or without HSLs or TNF α plus cycloheximide. 24 hrs later, cells and supernatants were collected separately. For OT-I activation, cells were stained with CD69 and CD8. For OT-II activation, cells were stained with CD69 and CD4. Cell activation was measured by flow cytometry. All supernatants were detected for IL-2 secretion by ELISA.
# TNFR1 (1-293) mutant = target: T2, TNFR1 (1-293) mutant (Homo sapiens, UniProt P19438); assay: Single molecule photo-bleaching step counting (MSFQ), TNFR1 in HELA cells; format: cell-based
# T2 construct: human TNFR1 (1-293) mutant was amplified from human TNFR1 with specific primers and cloned into peGFP-N1 vector; expressed in transfected cells; host or cells: HeLa cells
# T2 sequence (P19438 30-293): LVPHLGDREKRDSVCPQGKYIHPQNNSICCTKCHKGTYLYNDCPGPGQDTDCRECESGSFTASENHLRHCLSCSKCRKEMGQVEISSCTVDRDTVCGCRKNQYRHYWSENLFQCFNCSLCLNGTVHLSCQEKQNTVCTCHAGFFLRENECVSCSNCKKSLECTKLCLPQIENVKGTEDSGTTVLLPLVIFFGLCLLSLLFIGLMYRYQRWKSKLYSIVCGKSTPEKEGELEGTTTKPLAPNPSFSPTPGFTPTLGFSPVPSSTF
# Excerpt: Then the cells were stimulated with HSLs, TNF α, or left untreated, and washed twice with PBS and fixed with 4% paraformaldehyde before imaging. GFP was excited at 488 nm with a laser power of 5 mW measured after the laser passing through the objective. […] The EM gain of the EMCCD camera was set at 300. Movies of 400 frames were acquired for each sample at a full-frame rate of 10 Hz. For imaging analysis, the background fluorescence was firstly subtracted from the movie acquired from the fixed cells using the rolling ball method in Image J software, and regions of interest on movies were selected manually according to the outline of cells. To analyze the bleaching steps, the fluorescence time courses of each fluorescent spots were first constructed by Image J plugin and bleaching steps were then counted manually.
# THP-1 cell line = assay: Annexin V/PI apoptosis detection, THP-1; format: cell-based, human; details: THP-1, 3OC plus Emricasan, 1 hr, AnnexinV and PI
# Experimental: as §1
# (§2) In order to verify TNFR1-FADD-caspase8-caspase3 pathway inhibitor can block immunocyte apoptosis caused by 3OC12-HSL clinically. The inventors use a clinical version of caspase inhibitor Emricasan as a test. […] To be specific, in a 12 plate, THP-1 cells were cultured with indicated concentrations of 3OC and Emricasan. After 1 hr, cells were collection for flow cytometric analysis of AnnexinV and PI. […] In FIG. 17b, live cell percentage of different treatment were enumerated by flow cytometry. Bar graphs of live cell percentage are depicted by mean±SEM. Then samples prepared as in FIG. 17a and FIG. 17b were used for WB analysis for the activation (cleavage) of Caspase 8 and 3. […]
# mouse splenocytes = assay: AnnexinV and PI staining, B6 splenocytes; format: cell-based
# Experimental: as §1, §2
# Caspase 8 and 3 = assay: WB analysis of Caspase 8 and 3 cleavage in THP-1; format: cell-based, human; details: THP-1, 1 hr and 2 hr
# Experimental: In order to verify TNFR1-FADD-caspase8-caspase3 pathway inhibitor can block immunocyte apoptosis caused by 3OC12-HSL clinically. The inventors use a clinical version of caspase inhibitor Emricasan as a test. […] To be specific, in a 12 plate, THP-1 cells were cultured with indicated concentrations of 3OC and Emricasan. After 1 hr, cells were collection for flow cytometric analysis of AnnexinV and PI. […] In FIG. 17b, live cell percentage of different treatment were enumerated by flow cytometry. Bar graphs of live cell percentage are depicted by mean±SEM. Then samples prepared as in FIG. 17a and FIG. 17b were used for WB analysis for the activation (cleavage) of Caspase 8 and 3. […] In FIG. 17c, the incubate time of the left panel is 1 hr, and the […] panel is 2 hr. (Casp 8: Caspase 8, Cld Casp 8: Cleaved-Caspase 8, Casp 3: Caspase 3, Cld Casp 3: Cleaved-Caspase 3). […] Furthermore, the inventors use B6 splenocytes (separated from C57BL/6 spleen) as the test.
compound,measurement,setting,value
MβCD,TNFR1 diffusion coefficient,TNFR1,higher diffusion coefficient
same,TNFR1 x-y surface area coverage,TNFR1,larger area coverage
Z-VAD,effect on 3OC12 HSL cytotoxicity,[1],reduced the cytotoxicity
CCCCCC(=O)CC(=O)N[C@H]1CCOC1=O [3-oxo-C8],TNFR1 trimerization (three step quenching),TNFR1 (1-293) mutant,failed to increase
C[C@H](NC(=O)C(=O)Nc1ccccc1C(C)(C)C)C(=O)N[C@@H](CC(=O)O)C(=O)COc1c(F)c(F)cc(F)c1F [Emricasan],blocking of 3OC12-HSL's apoptosis,THP-1 cell line,good effect in blocking 3OC12-HSL's apoptosis
same,blocking of 3OC12-HSL's apoptosis,mouse splenocytes,good effect in blocking 3OC12-HSL's apoptosis
same,blocking of Caspase 8 and 3 cleavage,Caspase 8 and 3,has effect in blocking 3OC12-HSL's apoptosis mediated by Caspase
TNFα,TNFR1 trimerization (three step quenching),TNFR1 (1-293) mutant,similarly occurred

# From US11583570B2, “Use of autoinducer-related pathway in inducing apoptosis and anti-infective therapy” (TSINGHUA UNIVERSITY, priority 2017, dated 2023)
